Read-outs that look alike come from different tables or passages of the source.
Tests used:
kochia = experiment: Test A pre-/postemergence herbicide test; type: in vivo, Kochia scoparia
In short: (§1)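 Both application timings used compounds in a non-phytotoxic solvent plus surfactant. Pre-emergence: soil sprayed directly after seeding into loam/sand. Post-emergence: foliage of 2–10 cm seedlings (1–2 leaves) sprayed. Injury rated ~10 days later, 0–100.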

johnsongrass = experiment: Test C pre-/postemergence herbicide test; type: in vivo, Sorghum halepense
Source text: (§2) Seeds of plant species selected from blackgrass (Alopecurus myosuroides), ryegrass, Italian (Italian ryegrass, Lolium multiflorum), wheat (winter wheat, Triticum aestivum), galium (catchweed bedstraw, Galium aparine), corn (Zea mays), crabgrass, large (large crabgrass, Digitaria sanguinalis), foxtail, giant (giant foxtail, Setaria faberii), johnsongrass (Sorghum halepense), lambsquarters (Chenopodium album), morningglory (Ipomoea coccinea), nutsedge, yellow (yellow nutsedge, Cyperus esculentus), pigweed (Amaranthus retroflexus), ragweed (common ragweed, Ambrosia elatior), soybean (Glycine max), barnyardgrass (Echinochloa crus-galli), oilseed rape (Brassica napus), waterhemp (common waterhemp, Amaranthus rudis), kochia (Kochia scoparia), oat, wild (wild oat, Avena fatua), surinam grass (Brachiaria decumbens), foxtail, green (green foxtail, Setaria viridis), goosegrass (Eleusine indica), bromegrass, downy (downy bromegrass, Bromus tectorum), nightshade (eastern black nightshade, Solanum ptycanthum), cocklebur (common cocklebur, Xanthium strumarium), cupgrass, woolly (woolly cupgrass, Eriochloa villosa), bermudagrass (Cynodon dactylon), sunflower, (common oilseed sunflower, Helianthus annuus), Russian thistle (Salsola kali) and velvetleaf (Abutilon theophrasti) were planted into a blend of loam soil and sand and treated preemergence with test chemicals formulated in a non-phytotoxic solvent mixture which included a surfactant. At the same time, plants selected from these crop and weed species and also barley (winter barley, Hordeum vulgare), […]), chickweed (common chickweed, Stellaria media), deadnettle (henbit deadnettle, Lamium amplexicaule), and canarygrass (littleseed canarygrass, Phalaris minor) were planted in pots containing Redi-Earth® planting medium (Scotts Company, 14111 Scottslawn Road, Marysville, Ohio 43041) comprising spaghnum peat moss, vermiculite, wetting agent and starter nutrients and treated with postemergence applications of test chemicals formulated in the same manner. Plants ranged in height from 2 to 18 cm (1- to 4-leaf stage) for postemergence treatments. Treated plants and controls were maintained in a greenhouse for 13 to 15 days, after which time all species were compared to controls and visually evaluated. Plant response ratings, summarized in Table C, are based on a scale of 0 to 100 where 0 is no effect and 100 is complete control. A dash (-) response means no test result.

corn = experiment: Test A pre-/postemergence herbicide test; type: in vivo, Zea mays; details: for Corn plant response rating: Preemergence; for Corn plant response rating (crop injury, 0 = no effect, 100 = complete kill) at 125 g/ha / Corn plant response rating (crop injury, 0 = no effect, 100 = complete kill) at 500 g/ha: Zea mays, 240 h
In short: as §1

barnyardgrass = experiment: Test C pre-/postemergence herbicide test; type: in vivo, Echinochloa crus-galli
Source text: as §2

ryegrass, Italian = experiment: Test C pre-/postemergence herbicide test; type: in vivo, Lolium multiflorum
Source text: as §2

morningglory = experiment: Test C pre-/postemergence herbicide test; type: in vivo, Ipomoea coccinea
Source text: as §2

crabgrass, large = experiment: Test A pre-/postemergence herbicide test; type: in vivo, Digitaria sanguinalis; details: for pest or weed control at 125 g/ha / pest or weed control at 500 g/ha: Digitaria sanguinalis, 240 h, read-out: Plant response rating, Crabgrass, Large; for Crabgrass, Large plant response rating: Preemergence, visual rating on 0 to 100 scale (0 no effect, 100 complete control)
In short: as §1

[1] = Postemergence, 125 g ai/ha, visual rating on 0 to 100 scale (0 no effect, 100 complete control), approx. 10 days
[2] = Postemergence, 500 g ai/ha, 0 to 100 scale (0 no effect, 100 complete control)
[3] = Preemergence, 125 g ai/ha, 0 to 100 scale where 0 is no effect and 100 is complete control
[4] = Preemergence, 500 g ai/ha, visual rating on 0 to 100 scale (0 no effect, 100 complete control)
[5] = Postemergence, 31 g ai/ha, scale 0 to 100 (0 no effect, 100 complete control)
[6] = Postemergence, 62 g ai/ha, scale 0 (no effect) to 100 (complete control)
[7] = Postemergence, 125 g ai/ha, scale 0 to 100 (0 no effect, 100 complete control)
[8] = Postemergence, 250 g ai/ha, scale 0 to 100 (0 no effect, 100 complete control)
[9] = Preemergence, 31 g ai/ha, scale 0 to 100, 0 is no effect and 100 is complete control
[10] = Preemergence, 62 g ai/ha, scale 0 to 100 (0 no effect, 100 complete control)
[11] = Preemergence, 125 g ai/ha, scale 0 to 100 (0 no effect, 100 complete control)
[12] = 125 g ai/ha, visual rating, 0 to 100 scale, 0 no effect, 100 complete control, approximately 10 days, preemergence
[13] = Postemergence, 125 g ai/ha, 0 to 100 scale, 0 is no effect, 100 is complete control
[14] = preemergence, 500 g ai/ha, 0 to 100 scale, 0 is no effect and 100 is complete control
[15] = Preemergence, 125 g ai/ha, scale 0 to 100
[16] = post-emergence, Postemergence, 125 g ai/ha, 0 to 100 scale, 0 no effect, 100 complete control
[17] = post-emergence, Postemergence, 500 g ai/ha, 0 to 100 scale (0 no effect, 100 complete control)
[18] = pre-emergence, preemergence, 500 g ai/ha, 0 to 100 scale
[19] = 125 g ai/ha, visual rating on 0 to 100 scale (0 no effect, 100 complete control)
[20] = Postemergence, 125 g ai/ha, 0 to 100 scale, 0 no effect, 100 complete control
[21] = preemergence, 500 g ai/ha, 0 to 100 scale

## CN1CC(c2ccc(F)c(F)c2)C(C(=O)Nc2cccc(F)c2F)C1=O (centres unmarked) [Compound 303]
kochia; [1]
  Plant response rating, Kochia: 50
kochia; [2]
  Plant response rating, Kochia: 80
kochia; [3]
  Plant response rating, Kochia: 70
kochia; [4]
  Kochia plant response rating: 80
johnsongrass; [5]
  Plant response rating, Johnsongrass: 0
johnsongrass; [6]
  Plant response rating, Johnsongrass: 0
johnsongrass; [7]
  Plant response rating, Johnsongrass: 0
johnsongrass; [8]
  Plant response rating, Johnsongrass: 5
johnsongrass; [9]
  Johnsongrass plant response rating: 0
johnsongrass; [10]
  Johnsongrass plant response rating: 55
johnsongrass; [11]
  Plant response rating, Johnsongrass: 65
johnsongrass; Preemergence, 250 g ai/ha
  Plant response rating (scale of 0 to 100), Johnsongrass: 80
corn; [1]
  Plant response rating, Corn: 50
corn; [2]
  Plant response rating, Corn: 70
barnyardgrass; [5]
  Plant response rating, Barnyardgrass: 10
barnyardgrass; [6]
  Plant response rating, Barnyardgrass: 60
barnyardgrass; [7]
  Plant response rating, Barnyardgrass: 70
barnyardgrass; [8]
  Plant response rating, Barnyardgrass: 70
barnyardgrass; [9]
  Barnyardgrass plant response rating: 90
barnyardgrass; [10]
  Barnyardgrass plant response rating: 95
barnyardgrass; [11]
  Plant response rating, Barnyardgrass: 95
barnyardgrass; Preemergence, 250 g ai/ha
  Plant response rating (scale of 0 to 100; 0 is no effect, 100 is complete control), Barnyardgrass: 98
ryegrass, Italian; [5]
  Plant response rating, Ryegrass, Italian: 0
ryegrass, Italian; [6]
  Plant response rating, Ryegrass, Italian: 0
ryegrass, Italian; [7]
  Plant response rating, Ryegrass, Italian: 0
ryegrass, Italian; [8]
  Plant response rating, Ryegrass, Italian: 5
ryegrass, Italian; [9]
  Ryegrass, Italian plant response rating: 30
ryegrass, Italian; [10]
  Ryegrass, Italian plant response rating: 35
ryegrass, Italian; [11]
  Plant response rating, Ryegrass, Italian: 70
ryegrass, Italian; Preemergence, 250 g ai/ha
  Plant response rating (scale of 0 to 100), Ryegrass, Italian: 75
morningglory; [5]
  Plant response rating, Morningglory: 10
morningglory; [6]
  Plant response rating, Morningglory: 60
morningglory; [7]
  Plant response rating, Morningglory: 0
morningglory; [8]
  Plant response rating, Morningglory: 0
morningglory; [9]
  Morningglory plant response rating: 0
morningglory; [10]
  Morningglory plant response rating: 0
morningglory; [11]
  Plant response rating, Morningglory: 15
morningglory; Preemergence, 250 g ai/ha
  Plant response rating (scale of 0 to 100), Morningglory: 45

## O=C1NCC(c2ccc(Cl)cc2)C1C(=O)Nc1cccc(F)c1F (centres unmarked) [Compound 218]
kochia; [12]
  Plant response rating, Kochia: 30
kochia; [13]
  Plant response rating, Kochia: 50
kochia; Postemergence, 500 g ai/ha
  Kochia plant response rating (0 to 100 scale, 0 is no effect, 100 is complete control): 60
kochia; [14]
  Plant response rating, Kochia: 70
johnsongrass; [9]
  Johnsongrass plant response rating: 0
johnsongrass; [10]
  Johnsongrass plant response rating: 10
johnsongrass; [11]
  Plant response rating, Johnsongrass: 15
johnsongrass; Preemergence, 250 g ai/ha
  Plant response rating (scale of 0 to 100), Johnsongrass: 40
corn; [13]
  Plant response rating, Corn: 20
corn; Postemergence, 500 g ai/ha
  Corn plant response rating (0 to 100 scale, 0 is no effect, 100 is complete control): 30
barnyardgrass; [9]
  Barnyardgrass plant response rating: 80
barnyardgrass; Preemergence, 62 g ai/ha, scale 0 to 100
  Plant response rating, Barnyardgrass: 90
barnyardgrass; [11]
  Plant response rating, Barnyardgrass: 95
barnyardgrass; Preemergence, 250 g ai/ha
  Plant response rating (scale of 0 to 100; 0 is no effect, 100 is complete control), Barnyardgrass: 95
ryegrass, Italian; [9]
  Ryegrass, Italian plant response rating: 0
ryegrass, Italian; [10]
  Ryegrass, Italian plant response rating: 0
ryegrass, Italian; [11]
  Plant response rating, Ryegrass, Italian: 0
ryegrass, Italian; Preemergence, 250 g ai/ha
  Plant response rating (scale of 0 to 100), Ryegrass, Italian: 50
morningglory; [9]
  Morningglory plant response rating: 0
morningglory; [10]
  Morningglory plant response rating: 0
morningglory; [11]
  Plant response rating, Morningglory: 25
morningglory; Preemergence, 250 g ai/ha
  Plant response rating (scale of 0 to 100), Morningglory: 20

## CC(C)c1cccc(C2CNC(=O)C2C(=O)Nc2ccccc2F)c1 (centres unmarked) [Compound 318]
kochia; [1]
  Plant response rating, Kochia: 20
kochia; [2]
  Plant response rating, Kochia: 30
kochia; [3]
  Plant response rating, Kochia: 20
kochia; [4]
  Kochia plant response rating: 70
johnsongrass; [9]
  Johnsongrass plant response rating: 0
johnsongrass; [10]
  Johnsongrass plant response rating: 0
johnsongrass; [15]
  Plant response rating, Johnsongrass: 45
johnsongrass; Preemergence, 250 g ai/ha
  Plant response rating (scale of 0 to 100), Johnsongrass: 60
corn; [1]
  Plant response rating, Corn: 20
corn; [2]
  Plant response rating, Corn: 50
barnyardgrass; [9]
  Barnyardgrass plant response rating: 80
barnyardgrass; [10]
  Barnyardgrass plant response rating: 95
barnyardgrass; [11]
  Plant response rating, Barnyardgrass: 95
barnyardgrass; Preemergence, 250 g ai/ha
  Plant response rating (scale of 0 to 100; 0 is no effect, 100 is complete control), Barnyardgrass: 95
ryegrass, Italian; [10]
  Ryegrass, Italian plant response rating: 0
ryegrass, Italian; [15]
  Plant response rating, Ryegrass, Italian: 0
morningglory; [9]
  Morningglory plant response rating: 30
morningglory; [10]
  Morningglory plant response rating: 40
morningglory; [15]
  Plant response rating, Morningglory: 30
morningglory; Preemergence, 250 g ai/ha
  Plant response rating (scale of 0 to 100), Morningglory: 40

## O=C1NCC(c2ccccc2)C1(Br)C(=O)Nc1ccccc1F (centres unmarked) [Compound 93, 3-bromo-N-(2-fluorophenyl)-2-oxo-4-phenyl-3-pyrrolidinecarboxamide]
crabgrass, large; [16]
  pest or weed control at 125 g/ha: 50%
crabgrass, large; [17]
  pest or weed control at 500 g/ha: 80%
crabgrass, large; [18]
  pest or weed control at 500 g/ha: 90%
crabgrass, large; 125 g ai/ha
  Crabgrass, Large plant response rating: 90
corn; [19]
  Corn plant response rating: 0
corn; [16]
  Corn plant response rating (crop injury, 0 = no effect, 100 = complete kill) at 125 g/ha: 0%
corn; [17]
  Corn plant response rating (crop injury, 0 = no effect, 100 = complete kill) at 500 g/ha: 0%
corn; [18]
  Corn plant response rating (crop injury, 0 = no effect, 100 = complete kill) at 500 g/ha: 0%

## O=C1NCC(Br)(c2ccccc2)C1C(=O)Nc1ccccc1F (centres unmarked) [Compound 92, 4-bromo-N-(2-fluorophenyl)-2-oxo-4-phenyl-3-pyrrolidinecarboxamide]
crabgrass, large; [16]
  pest or weed control at 125 g/ha: 20%
crabgrass, large; [17]
  pest or weed control at 500 g/ha: 70%
crabgrass, large; [18]
  pest or weed control at 500 g/ha: 90%
crabgrass, large; 125 g ai/ha
  Crabgrass, Large plant response rating: 80
corn; [19]
  Corn plant response rating: 0
corn; [16]
  Corn plant response rating (crop injury, 0 = no effect, 100 = complete kill) at 125 g/ha: 0%
corn; [17]
  Corn plant response rating (crop injury, 0 = no effect, 100 = complete kill) at 500 g/ha: 0%
corn; [18]
  Corn plant response rating (crop injury, 0 = no effect, 100 = complete kill) at 500 g/ha: 0%

## O=C1NCC(c2ccc(F)c(F)c2)C1C(=O)Nc1ccccc1C(F)(F)F (racemic) [Compound 6]
crabgrass, large; [20]
  Plant response rating, Crabgrass, Large: 60
crabgrass, large; [2]
  Plant response rating, Crabgrass, Large: 80
crabgrass, large; 125 g ai/ha
  Crabgrass, Large plant response rating: 80
crabgrass, large; [21]
  Plant response rating, Crabgrass, Large: 90
corn; [20]
  Plant response rating, Corn: 0
corn; [2]
  Plant response rating, Corn: 0
corn; [19]
  Corn plant response rating: 0
corn; [21]
  Plant response rating, Corn: 0

## O=C1NCC(c2cccc(C(F)F)c2)C1C(=O)Nc1ccccc1F (racemic) [Compound 210]
kochia; [12]
  Plant response rating, Kochia: 0
kochia; [13]
  Plant response rating, Kochia: 20
kochia; Postemergence, 500 g ai/ha
  Kochia plant response rating (0 to 100 scale, 0 is no effect, 100 is complete control): 60
kochia; [14]
  Plant response rating, Kochia: 30
corn; [13]
  Plant response rating, Corn: 0
corn; Postemergence, 500 g ai/ha
  Corn plant response rating (0 to 100 scale, 0 is no effect, 100 is complete control): 60

From patent US10294202B2, “Pyrrolidinones as herbicides” (FMC Corporation, priority 2013, dated 2019)
